Laboratory results as given in patent US12077508B2, “Inhibitors of the Notch transcriptional activation complex kinase (“NACK”) and methods for use of the same” (UNIVERSITY OF MIAMI, priority 2018, dated 2024).
“Also recorded” adds a separate entry of the source.

Legend:
OE33 cells = assay: Cell apoptosis assay (Annexin V/PI flow cytometry); format: cell-based, human; settings: day 7 of treatment, FIG. 9A
Method: To investigate how Z271-0326 inhibits cell growth in EAC cell lines, the effect of Z271-0326 treatment was evaluated on apoptosis. OE33 was treated either with the GSI DAPT or Z271-0326 every other day, and their effects on apoptosis were analyzed. On day 7 of treatment, cell apoptosis was analyzed using FITC Annexin V/Dead Cell Apoptosis Kit with FIFC annexin V and PI for flow cytometry (Invitrogen, V13242).

HC11 cells = assay: Colony formation assay in HC11 cells; format: cell-based, mouse; settings: Notch/NACK independent cell line; FIG. 5B
Method: (§1) A cell based colony formation assay was used in these experiments. Normal mouse mammary epithelia HC11 cells have little or no endogenous NACK expression, and NACK knockdown had no effect on the growth of HC11 cells (FIG. 5A, lower panel). […] Knockdown of NACK was confirmed by western blot and qPCR (FIGS. 1D and 1E). […] Therefore, compounds that affect OE33 colony formation but not HC11 were desired. In order to screen the compounds, cells were treated with test compounds every other day.
(§2) Colony formation assay was utilized to determine the effect of small molecule inhibitors on cell proliferation. In general, different cell lines (NACK dependent or independent) will be seeded in 6-well plates at a density of 2000 cells per well and allowed to attach overnight. Inhibitor treatment commenced 24 hours post seeding, and the media containing inhibitor was changed every 48 hours thereafter. After 168 hours, colonies were be stained with Crystal Violet (Millipore) and counted.

OE33 cell line = assay: Colony formation assay in OE33 cells; format: cell-based, human; settings: cells treated every other day; FIGS. 5B, 5C
Method: as §1, §2

HES1 promoter = assay: Chromatin immunoprecipitation (ChIP) at the HES1 promoter in OE33; format: cell-based, human; settings: 24 hours, FIG. 8C
Method: Notch/NACK-dependent cells were treated with either DAPT as a positive control, DMSO (vehicle) as a negative control, or compounds for screening for 24 hours. After treatment, cells were cross-linked and sonicated to yield chromatin fragments of approximately 500 bp, as previously described (See Weaver et al., Cancer Research 74, 4741-4751 (2014)). Lysates were immunoprecipitated with either α-Notch1 (Bethyl Laboratories, Montgomery, TX; A301-894A), α-Maml1 (Cell Signaling, 12166s), α-NACK (Bethyl Laboratories, A302-675A), or α-PoIII pSer5 (Abcam, ab5131) antibodies. DNA immunoprecipitates were cleaned using the PCR purification Kit (Qiagen). DNA were detected by Syber green qPCR using HES1 specific oligonucleotide primers (forward: 5′CGTGTCTCCTCCTCCCATT3′ (SEQ ID NO: 2); reverse: 5′GGGGGATTCCGCTGTTAT3′ (SEQ ID NO:3)).

C[C@H](NC(=O)Cc1cc(F)cc(F)c1)C(=O)N[C@H](C(=O)OC(C)(C)C)c1ccccc1 [DAPT, reference compound]
increase in the percent of cells undergoing apoptosis compared to the control (OE33 cells): twofold
HC11 colony formation / viability (HC11 cells): did not alter the viability of HC11 cells; also recorded: insensitive
OE33 colony formation (OE33 cell line): reduction in the colony formation
binding of N1ICD and NACK to the HES1 promoter (HES1 promoter): abrogated the binding of N1ICD and NACK to the HES1 promoter
